Data on 5 molecules can be found in paper PMC12529881, “Quantitative analysis of inhibitor‐induced assembly disruption in human UDP‐GlcNAc 2‐epimerase using mass photometry” (Protein Science : A Publication of the Protein Society, 2025).

Data set [1] addresses T1, human UDP‐GlcNAc 2‐epimerase (GNE) (Homo sapiens, UniProt Q9Y223).
T1 construct: The MNK subunit connects to the C‐terminus of the GNE subunit; made in house; host or cells: Escherichia coli BL21 (DE3)
T1 sequence (Q9Y223 1-405 limits assumed): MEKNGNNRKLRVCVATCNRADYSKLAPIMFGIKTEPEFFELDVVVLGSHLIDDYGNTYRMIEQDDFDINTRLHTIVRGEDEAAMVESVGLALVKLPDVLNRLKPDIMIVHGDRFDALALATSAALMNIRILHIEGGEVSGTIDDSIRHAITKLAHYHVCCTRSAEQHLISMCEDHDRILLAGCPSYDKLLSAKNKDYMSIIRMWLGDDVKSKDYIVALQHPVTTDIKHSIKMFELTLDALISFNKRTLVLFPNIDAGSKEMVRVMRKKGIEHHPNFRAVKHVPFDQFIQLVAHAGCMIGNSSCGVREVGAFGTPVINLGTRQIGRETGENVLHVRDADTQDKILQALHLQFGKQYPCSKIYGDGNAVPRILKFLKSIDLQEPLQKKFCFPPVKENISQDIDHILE
Kind of data set: Mass photometry Schild experiments and OMAM global fit (GNE tetramer inhibition by C15). The format is binding. How it is done: (§1) All MP measurements were conducted using a OneMP (Refeyn) instrument equipped with a 525 nm green laser. To minimize background noise, the instrument was placed on an active vibration isolation system (Accurion i4 Series, Park Systems). High‐precision glass coverslips (Paul Marienfeld GmbH & Co. KG, Cat# 0107222) were thoroughly cleaned before use to ensure optimal measurement conditions. Prior to MP measurements, samples were incubated in phosphate buffer (DPBS[−|−], Gibco, Cat# 14190144) and low‐binding tubes for 30 min in a ThermoMixer C (Eppendorf, Cat# 5382000015) at 20°C to allow binding equilibrium to be reached. Immediately before measurement, a 50 nM working solution was prepared. Then, 5 μL of the working solution was added to a 15 μL DPBS (−|−) droplet on the glass coverslip, followed by mixing upon pipetting to ensure proper distribution before measurements began immediately. This approach provided high reproducibility in our results. For the measurements, a regular field of view was used. Data acquisition was performed over a 60‐s detection period with manual focus adjustment. Data were recorded using the software AquireMP (2024 R2, Refeyn) and referenced against a glycinin mass standard in DPBS (−|−). The glycinin standard, derived from defatted soybean flour, forms characteristic trimers (160 kDa), hexamers (320 kDa), nonamers (480 kDa), and dodecamers (640 kDa). Purified and lyophilized glycinin was kindly provided by the group of Dr. Rumiana Dimova (Chen et al., [2020]; Mangiarotti et al., [2025]). Data analysis and graphical visualization were performed using DiscoverMP (2024 R2, Refeyn) and GraphPad Prism 10 (10.1.1, Dotmatics). All experiments were conducted in at least three independent replicates, each performed as technical triplicates.
To assess the binding affinity of inhibitors to GNE, modified Schild experiments were performed using MP. Serial dilutions of UDP‐GlcNAc (800 μM to 100 nM) were titrated against a constant GNE concentration (800 nM) in the presence of varying concentrations of inhibitor C15 (200 μM to 2 nM). Enzyme and substrate concentrations were chosen based on prior titration experiments (Figure 2c,g) to ensure a stable oligomeric equilibrium. Inhibitor concentrations were selected around the IC50 to enable accurate response characterization. Samples were incubated for 30 min at 20°C to ensure equilibration before measurement. EC50 values were obtained from substrate titration curves (tetramer fraction vs. UDP‐GlcNAc concentration), fitted using a Hill‐based function (Equation S3). The resulting EC50 values in the presence of inhibitor (EC50,Inh) were converted into logarithmic concentration ratios (log(CR‐1)) and plotted against the corresponding logarithmic inhibitor concentrations to generate a Schild plot. Data points were then fitted using a linear Schild equation (Equation S5), as described in the Supporting Information S1. Further cooperative factors were obtained from fitting the substrate concentration‐dependent response curves globally with an OMAM model (Equation S6) (Jakubík et al., [2020]).

Data set [2] has as its target T1, human UDP‐GlcNAc 2‐epimerase (GNE). Briefly: Mass photometry GNE assembly inhibition (inhibitor titration against 800 nM GNE). The format is biochemical. The conditions noted are these: for IC50 / effect on dimeric assembly: 800 nM GNE; for effect on dimeric assembly: absence of UDP‐GlcNAc; for Ki: from IC50 ^S (T) by modified Cheng–Prusoff equation (Equation S4), read-out: K i ^S (T). How it is done: as §1, with “This approach provided high reproducibility in our results.” left out
Twofold serial dilutions of the inhibitors (500–7.81 μM) were titrated against a constant GNE concentration (800 nM), either in the presence or absence of UDP‐GlcNAc (100 μM). The GNE and substrate concentrations were selected based on titration experiments ensuring binding saturation and the establishment of an assembly equilibrium. Prior to measurements, samples were incubated for 30 min at 20°C to allow equilibrium to be reached. IC50 values were determined from protein fraction vs. inhibitor concentration plots and fitted using a Hill‐based logistic function (Equation S3). Subsequently, K i values for GNE inhibitors were derived from a Cheng–Prusoff equation accounting for allostery (Equation S4), detailed in Supporting Information S1.

The target is the same in data set [3]. Kind of data set: Mass photometry affinity measurements of GNE subunits / substrate titration. The format is binding. As to the method: as §1
To determine the intermolecular protein affinities of GNE subunits, their assembly distribution was assessed using MP experiments. In the absence of substrate, serial GNE dilutions (50 μM to 50 nM) were performed to evaluate GNE subunit interactions. In the presence of UDP‐GlcNAc, intermolecular affinity changes were assessed through two titration approaches: First, different concentrations of UDP‐GlcNAc (500–7.81 μM) were titrated against a fixed concentration of GNE (0.8 μM). Second, different concentrations of GNE (0.2–10 μM) were titrated against a fixed concentration of UDP‐GlcNAc (100 μM). KD values were obtained from binding curves (Figure S4), fitted using a Hill‐based logistic model (Equation S1) (Fineberg et al., [2020]). The following dissociation constants were determined: K D ^0 (M:M) and K D ^0 (D:D) in the absence of UDP‐GlcNAc, K D ^S (D:D) and K D ^S (M:M) in the presence of UDP‐GlcNAc.

The test system of the next data set is GNE. Set-up: method as in Chen et al., 2016. The conditions noted are these: ref Chen et al., 2016; cited from earlier work.
Data set [4] deals with the molecule itself. Kind of data set: mass photometry.
Data set [5] deals with the molecule itself. Briefly: mass photometry. The source holds these as a separate data set.
[6] abbreviates: 100 μM UDP‐GlcNAc, DPBS pH 7.4, 20°C, Hill n fixed 1.3, read-out: IC50 ^S (T), GNE tetramer destabilization.
The mark [7] stands for this setting: absence of UDP-GlcNAc, read-out: IC50^0(D), GNE dimer inhibition.
The mark [8] stands for this setting: presence of 100 µM UDP-GlcNAc, read-out: IC50^S(D), GNE dimer inhibition.
[9] abbreviates: substrate titration against 800 nM GNE.

Where two headings read alike, the source gives them in different places. Some results are limits rather than exact numbers.

Regarding `COc1c(Br)cc(Br)cc1/C=C/c1cc(C(F)(F)F)[nH]c(=O)n1` [C15, (E)‐4‐(3,5‐dibromo‐2‐methoxystyryl)‐6‐(trifluoromethyl)pyrimidin‐2(1H)‐one], the “K B (OMAM) fold lower than K B,app (Schild)” value in data set [1] is ~ 28 fold. Further, the “operational cooperativity factor β” value in data set [1] (OMAM fit) is listed as “≈ 0”. In data set [1] (OMAM fit), the “operational efficacy τ I (inhibitor)” value was determined as 0.02. Moreover, the “binding cooperativity factor ɑ” value in data set [1] (OMAM fit, between C15 and substrate binding) was 0.02. The Kd in data set [1] (OMAM global fit (Equation S6), read-out: inhibitor affinity K B) is 25.2 nM; in data set [1] (x‐intercept of linear Schild fit (linear region 0.8–10 μM C15), 800 nM GNE, read-out: apparent affinity K B,app), about 700 nM. The Schild slope m in data set [1] (linear region 0.8–10 μM C15, Equation S5) was 1.1. For the same molecule, the half-maximal inhibitory concentration (IC50) in data set [2] (setting [6]) amounted to 3.1 ± 1.2 µM; in data set [2] (setting [7]) it was 21 ± 2.6 µM; in data set [2] (setting [8]) it was 173 ± 100 µM. For the same molecule, the “tetramer inhibition at single concentration” value in data set [2] (31.25 μM C15, 800 nM GNE, 100 μM UDP‐GlcNAc) was “full tetramer inhibition”. Besides, the “effect on dimeric assembly” value in data set [2] is “significantly disrupted the dimeric assembly”. Also, the Ki in data set [2] (100 μM UDP‐GlcNAc) came out at 82.6 ± 39.7 nM.

As to `CC(=O)N[C@H]1[C@@H](OP(=O)([O-])OP(=O)([O-])OC[C@H]2O[C@@H](n3ccc(=O)[nH]c3=O)[C@H](O)[C@@H]2O)O[C@H](CO)[C@@H](O)[C@@H]1O.[Na+].[Na+]` [UDP‐GlcNAc, Uridine diphosphate N‐acetyglucosamine disodium salt], the “increase of dimer–dimer affinity by substrate binding” value in data set [3] was found to be 98 fold. Moreover, the Kd in data set [3] (from tetramer curve, substrate titration against 800 nM GNE, Equation S2, read-out: substrate affinity K S) is 34600 ± 3000 nM; in data set [3] (presence of 100 μM UDP‐GlcNAc, fit Equation S1, read-out: K D ^S (D:D), GNE dimer–dimer interaction), 98.1 ± 9.1 nM; in data set [3] (presence of 100 μM UDP‐GlcNAc, fit Equation S1, read-out: K D ^S (M:M), GNE monomer–monomer interaction), 37.2 ± 7.5 nM; in data set [3] (presence of 100 μM UDP‐GlcNAc, mean calculated by law of mass action, read-out: K D ^S Calc.(D:D)), 221 ± 27.2 nM; in data set [3] (presence of 100 μM UDP‐GlcNAc, mean calculated by law of mass action, read-out: K D ^S Calc.(M:M)) it was 65.3 ± 12.4 nM. The “Hill coefficient n of tetramer fraction” value in data set [3] (setting [9]) is on record as 1.3. For the same molecule, the “maximal response E max (maximal tetramer fraction)” value in data set [3] (setting [9]) was 68.3%. Also, in data set [1] (OMAM fit), the “operational efficacy τ S (substrate)” value amounted to 17.6. Moreover, in the data set on GNE, the “K M of GNE” value is 33.1 ± 4.2 µM.

With `O=c1nc(/C=C/c2cc([N+](=O)[O-])ccc2Cl)cc(C(F)(F)F)[nH]1` [C13, (E)‐4‐(2‐chloro‐5‐nitrostyryl)‐6‐(trifluoromethyl)pyrimidin‐2(1H)‐one], the values for the IC50 in data set [2] (setting [6]), in data set [2] (setting [7]) and in data set [2] (setting [8]) were 19.4 ± 4.2 µM, over 1000 µM and 472 ± 42.5 µM, respectively. Further, in data set [2], the “effect on dimeric assembly” value is “significantly disrupted the dimeric assembly”. For the same molecule, the Ki in data set [2] (100 μM UDP‐GlcNAc) stood at 508 ± 182 nM.

B1: GNE (UDP-GlcNAc 2-epimerase), monomer UDP-GlcNAc 2-epimerase domain (protein)
chain: MEKNGNNRKLRVCVATCNRADYSKLAPIMFGIKTEPEFFELDVVVLGSHLIDDYGNTYRMIEQDDFDINTRLHTIVRGEDEAAMVESVGLALVKLPDVLNRLKPDIMIVHGDRFDALALATSAALMNIRILHIEGGEVSGTIDDSIRHAITKLAHYHVCCTRSAEQHLISMCEDHDRILLAGCPSYDKLLSAKNKDYMSIIRMWLGDDVKSKDYIVALQHPVTTDIKHSIKMFELTLDALISFNKRTLVLFPNIDAGSKEMVRVMRKKGIEHHPNFRAVKHVPFDQFIQLVAHAGCMIGNSSCGVREVGAFGTPVINLGTRQIGRETGENVLHVRDADTQDKILQALHLQFGKQYPCSKIYGDGNAVPRILKFLKSIDLQEPLQKKFCFPPVKENISQDIDHILE
B1: in the data set “mass photometry [4]”, the Kd came out at 12.6 nM.

B2: GNE (UDP-GlcNAc 2-epimerase), dimer UDP-GlcNAc 2-epimerase domain (protein)
chain: MEKNGNNRKLRVCVATCNRADYSKLAPIMFGIKTEPEFFELDVVVLGSHLIDDYGNTYRMIEQDDFDINTRLHTIVRGEDEAAMVESVGLALVKLPDVLNRLKPDIMIVHGDRFDALALATSAALMNIRILHIEGGEVSGTIDDSIRHAITKLAHYHVCCTRSAEQHLISMCEDHDRILLAGCPSYDKLLSAKNKDYMSIIRMWLGDDVKSKDYIVALQHPVTTDIKHSIKMFELTLDALISFNKRTLVLFPNIDAGSKEMVRVMRKKGIEHHPNFRAVKHVPFDQFIQLVAHAGCMIGNSSCGVREVGAFGTPVINLGTRQIGRETGENVLHVRDADTQDKILQALHLQFGKQYPCSKIYGDGNAVPRILKFLKSIDLQEPLQKKFCFPPVKENISQDIDHILE
With B2, the Kd in “mass photometry [5]” amounted to 9.6 µM.

The term IC50 denotes the midpoint of a concentration-inhibition curve.
